The values below come from patent US10406218B2 (priority 2014, dated 2019).

Read-outs that look alike come from different tables or passages of the source.

This assay has as its system PBMC from 30 HC individuals. Briefly: ex vivo IFNγ ELISPOT with NTM-specific peptides. Format: cell-based, human.
Setting [1] is: response frequency among HC donors, NTM-specific peptides (Table 2).
[2] abbreviates: total spot forming cells, IFNγ ELISPOT, NTM-specific peptides (Table 2).

Turning to HEEIQLLANDFSTML [Peptide 446], the Resp Freq came to 3% and the “Total SFC” value is 182 SFC. The “Resp Freq” value under setting [1] was 3%. Besides, the “Total SFC” value under setting [2] was 182 SFC.
Consider 732 (PLRVAFLIVLIGTTV) [Peptide 732], for which the “Resp Freq” value under setting [1] amounted to 3%. Also, the “Total SFC” value under setting [2] was determined as 33 SFC.
The like results for 626 (ARAGFAASGVLHLLV) [Peptide 626] were, in that order, 3% and 48 SFC.
Take RLFPVIRRYALAYHV [Peptide 582]: the Resp Freq amounted to 10% and the “Total SFC” value came to 158 SFC. Besides, the “Resp Freq” value under setting [1] amounted to 10%. In addition, the “Total SFC” value under setting [2] is given as 158 SFC.
Consider 1529 (EGIVFALGGALDFSY) [Peptide 1529], for which, under setting [1], the “Resp Freq” value stood at 3%. Moreover, the “Total SFC” value under setting [2] is given as 23 SFC.
For the substance ETTRNLIALGTLALI [Peptide 829], the Resp Freq is reported as 3% and the “Total SFC” value turned out to be 93 SFC. For the same substance, the “Resp Freq” value under setting [1] was determined as 3%. The “Total SFC” value under setting [2] is reported as 93 SFC.
With 1542 (GRVAWNIVTSYLDSA) [Peptide 1542], the “Resp Freq” value under setting [1] came to 3%. Further, the “Total SFC” value under setting [2] is 52 SFC.
The like results for 1072 (HIELALYRIAQECLQ) [Peptide 1072] were, in that order, 3% and 37 SFC.
The matching figures for 871 (LVYLVGFKTKVSTLL) [Peptide 871]: 3% and 28 SFC.
Consider 691 (LANPGIVSIPLAFIL) [Peptide 691], for which the “Resp Freq” value under setting [1] was 3%. The “Total SFC” value under setting [2] is listed as 23 SFC.
In the case of GRLIGWLAKVLAEHP [Peptide 1258], the Resp Freq is recorded as 3% and the “Total SFC” value came out at 60 SFC. The “Resp Freq” value under setting [1] is listed as 3%. The “Total SFC” value under setting [2] came to 60 SFC.
937 (HLMQSVVMVSFPVEV) [Peptide 937]: the “Resp Freq” value under setting [1] is 3%. For the same substance, under setting [2], the “Total SFC” value stood at 22 SFC.
Regarding 405 (PLVYFIDSMLQVDDL) [Peptide 405], the “Resp Freq” value under setting [1] is 3%. Further, the “Total SFC” value under setting [2] is 33 SFC.
The matching figures for 1350 (LFFLFPLYAMADFST) [Peptide 1350]: 3% and 30 SFC.
Regarding YNVVIYPVTTLRLAM [Peptide 1556], the Resp Freq was found to be 3% and the “Total SFC” value turned out to be 122 SFC. The “Resp Freq” value under setting [1] is reported as 3%. For the same substance, the “Total SFC” value under setting [2] amounted to 122 SFC.
Take 645 (PASILILFAPGAPRE) [Peptide 645]: the “Resp Freq” value under setting [1] came to 3%. For the same substance, the “Total SFC” value under setting [2] is 23 SFC.
With 658 (VRRVLPALMNQFISL) [Peptide 658], the “Resp Freq” value under setting [1] came out at 3%. Besides, under setting [2], the “Total SFC” value turned out to be 32 SFC.
The like results for 1549 (RILQVFTEAYADVER) [Peptide 1549] were, in that order, 3% and 48 SFC.
The like results for 712 (VVLMIFRPQGLFPAR) [Peptide 712] were, in that order, 3% and 27 SFC.
Regarding 1075 (SPEQAYLLLGAAPIE) [Peptide 1075], the “Resp Freq” value under setting [1] is on record as 3%. Under setting [2], the “Total SFC” value came to 22 SFC.
The like results for 697 (RSLMFPTLASLIEER) [Peptide 697] were, in that order, 3% and 25 SFC.
The like results for 1284 (NAVLFLASDEARYIT) [Peptide 1284] were, in that order, 3% and 25 SFC.
The like results for 323 (MIEMLAMSDLSLMVK) [Peptide 323] were, in that order, 3% and 38 SFC.
As for 586 (ELVWLGAAMIIGAGS) [Peptide 586], under setting [1], the “Resp Freq” value is on record as 3%. Also, the “Total SFC” value under setting [2] came to 37 SFC.
Consider 1004 (ARQMLRFLSSPLWRA) [Peptide 1004], for which the “Resp Freq” value under setting [1] worked out at 3%. Under setting [2], the “Total SFC” value is 27 SFC.
The matching figures for 1452 (TTPHFLVEGAIIAAY) [Peptide 1452]: 3% and 43 SFC.
On to QWGYRMVLPQLILMP [Peptide 868], for which the Resp Freq was found to be 3% and the “Total SFC” value was 58 SFC. For the same substance, the “Resp Freq” value under setting [1] turned out to be 3%. In addition, the “Total SFC” value under setting [2] is 58 SFC.
On to 175 (LDYFLNLMLRAPFRL) [Peptide 175], for which the “Resp Freq” value under setting [1] was found to be 3%. Moreover, the “Total SFC” value under setting [2] is recorded as 32 SFC.
The like results for 1218 (RTFFRYFPTKESVLF) [Peptide 1218] were, in that order, 3% and 48 SFC.
The matching figures for 537 (VEPVDISNAVLFLAS) [Peptide 537]: 3% and 43 SFC.
As for GSMLWVAALIGEEIF [Peptide 587], the Resp Freq worked out at 7% and the “Total SFC” value is recorded as 68 SFC. In addition, the “Resp Freq” value under setting [1] is listed as 7%. Under setting [2], the “Total SFC” value was 68 SFC.
LMLIWACDLIVAADN [Peptide 1224]: the Resp Freq is reported as 10% and the “Total SFC” value was 97 SFC. The “Resp Freq” value under setting [1] is on record as 10%. In addition, the “Total SFC” value under setting [2] amounted to 97 SFC.
Take 538 (VEVVSAEALQLPLWG) [Peptide 538]: the “Resp Freq” value under setting [1] worked out at 3%. Also, under setting [2], the “Total SFC” value is 30 SFC.
The like results for 439 (GMVFQSFNLFAHKTI) [Peptide 439] were, in that order, 3% and 28 SFC.
The like results for 424 (AVPNFALTPLLIIWM) [Peptide 424] were, in that order, 3% and 55 SFC.
The like results for 417 (GVVAAIIAYNYPNQL) [Peptide 417] were, in that order, 3% and 28 SFC.
Regarding SQRLVTLSYRLDAAA [Peptide 1471], the Resp Freq turned out to be 7% and the “Total SFC” value is listed as 58 SFC. Further, the “Resp Freq” value under setting [1] is on record as 7%. Further, the “Total SFC” value under setting [2] turned out to be 58 SFC.
For KWETFLTQELPAYLA [Peptide 741], the Resp Freq came out at 13% and the “Total SFC” value is reported as 248 SFC. Further, the “Resp Freq” value under setting [1] was 13%. Moreover, the “Total SFC” value under setting [2] was found to be 248 SFC.
As for LMVLFQYGVALHELE [Peptide 7], the Resp Freq amounted to 3% and the “Total SFC” value came out at 138 SFC. In addition, under setting [1], the “Resp Freq” value is 3%. Besides, under setting [2], the “Total SFC” value is 138 SFC.
1244 (LIFDGVFDRFPTLRI) [Peptide 1244]: the “Resp Freq” value under setting [1] is 3%. In addition, the “Total SFC” value under setting [2] amounted to 35 SFC.
The like results for 88 (ALVLVSLLTALAAGI) [Peptide 88] were, in that order, 3% and 28 SFC.
The matching figures for 1331 (VEAGMVYVTLPPLFV) [Peptide 1331]: 3% and 58 SFC.
The matching figures for 1368 (TMMLSLVWPIASLGF) [Peptide 1368]: 3% and 40 SFC.
Take 898 (GQRVITLLASANRDE) [Peptide 898]: the “Resp Freq” value under setting [1] turned out to be 3%. Besides, the “Total SFC” value under setting [2] amounted to 23 SFC.
The like results for 47 (VEFFRAVPVLIMMIF) [Peptide 47] were, in that order, 3% and 40 SFC.
On to ALLYIPLLTRMLMNL [Peptide 777], for which the Resp Freq was determined as 7% and the “Total SFC” value was 87 SFC. In addition, under setting [1], the “Resp Freq” value came out at 7%. Besides, the “Total SFC” value under setting [2] was 87 SFC.
As for 1196 (MVWRAAAAIELGICD) [Peptide 1196], the “Resp Freq” value under setting [1] worked out at 3%. Further, under setting [2], the “Total SFC” value was determined as 35 SFC.
The matching figures for 659 (GLLYVPQLATISATF) [Peptide 659]: 3% and 38 SFC.
In the case of DPLIFFRPRVERLFG [Peptide 720], the Resp Freq stood at 10% and the “Total SFC” value is 125 SFC. Besides, the “Resp Freq” value under setting [1] turned out to be 10%. Besides, under setting [2], the “Total SFC” value is 125 SFC.
1458 (HFVSTLSATFPEGED) [Peptide 1458]: under setting [1], the “Resp Freq” value came out at 3%. Moreover, the “Total SFC” value under setting [2] is 47 SFC.
The like results for 953 (FEHSVVNMFLFPSGL) [Peptide 953] were, in that order, 3% and 25 SFC.
The like results for 787 (DVDIDQLRSFLADKV) [Peptide 787] were, in that order, 3% and 38 SFC.
745 (VFALMGLRQLYFLLG) [Peptide 745]: the “Resp Freq” value under setting [1] is 3%. Moreover, the “Total SFC” value under setting [2] is listed as 35 SFC.
The matching figures for 861 (MVFATLLPLGVLQLY) [Peptide 861]: 3% and 47 SFC.
Consider 531 (LDSFQLFPNFVILFW) [Peptide 531], for which the “Resp Freq” value under setting [1] turned out to be 3%. Under setting [2], the “Total SFC” value is 28 SFC.
The like results for 945 (ALIHVLWINAGLSCD) [Peptide 945] were, in that order, 3% and 23 SFC.
The matching figures for 397 (ALMNQFISLLKASSL) [Peptide 397]: 3% and 40 SFC.
The like results for 841 (PQFLIMPKLIPALIA) [Peptide 841] were, in that order, 3% and 48 SFC.
HQGLAFLLADMAAAV [Peptide 8]: the Resp Freq is reported as 3% and the “Total SFC” value stood at 58 SFC. For the same substance, the “Resp Freq” value under setting [1] amounted to 3%. Also, under setting [2], the “Total SFC” value is 58 SFC.
For the substance 646 (ADAVNFGVAPAFIVY) [Peptide 646], the “Resp Freq” value under setting [1] is reported as 3%. Moreover, under setting [2], the “Total SFC” value came out at 37 SFC.
As for 804 (NSSIVLISLPAIFRG) [Peptide 804], the “Resp Freq” value under setting [1] turned out to be 3%. For the same substance, the “Total SFC” value under setting [2] is recorded as 57 SFC.
The matching figures for 281 (IVAHYILQYATEELR) [Peptide 281]: 3% and 25 SFC.
As for SLHMFFHRLGPVLAR [Peptide 329], the Resp Freq came to 7% and the “Total SFC” value is 167 SFC. In addition, under setting [1], the “Resp Freq” value is given as 7%. Also, the “Total SFC” value under setting [2] stood at 167 SFC.
Take 1204 (TPGLNLVYAHLNRII) [Peptide 1204]: the “Resp Freq” value under setting [1] amounted to 3%. Moreover, under setting [2], the “Total SFC” value was 30 SFC.
